Laboratory results published in patent publication US20070031511A1, “Method of treatment” (priority 2003, published 2007).
Each block holds one molecule with its values, some of them ahead of it.

Key:
[1] = Quenching of gastrin tryptophan fluorescence by bismuth ions; type: binding; details: pH 4.0
Description: Values from the indicated number of independent experiments were combined to obtain the mean values (±S.E.) presented above.

[2] = Quenching of peptide tryptophan fluorescence by ferric ions (stoichiometry, apparent Kd); type: binding; details: mean ± S.E.
Summary of the method: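 Ferric ions titrated into peptide in 10 mM sodium acetate pH 4.0, 100 mM NaCl, 0.005% Tween 20; Trp fluorescence quenching read at ex 290/em 345 nm. Stoichiometry and apparent Kd from linear regression of Cs/fa = pCa + Kd/(1−fa); means ±S.E. of independent experiments.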

[3] = system: HT29 cells; assay: HT29 cell proliferation, MTT assay; type: cell-based, human
[4] = system: rectal mucosa; assay: Proliferation in the rectal mucosa of rectally defunctioned rats (metaphase-arrested cells); type: in vivo; details: colloidal bismuth subcitrate 135 mg/kg/12 hours oral gavage 5 days per week, 4 weeks; Ggly 2.5 nmol/kg/hr
Description: DFO (400 mg/kg) was administered intraperitoneally thrice weekly, and bismuth ions were administered as colloidal bismuth subcitrate (135 mg/kg/12 hours) by oral gavage 5 days per week. After 4 weeks, the rats were injected with vincristine to arrest cycling cells in metaphase, and sacrificed 3 hrs later. Crypt heights in the rectal mucosa, and the number of metaphase arrested cells per crypt, were then determined microscopically.

[5] = system: HT29 human colorectal carcinoma cells; assay: Ggly-stimulated inositol phosphate production in HT29 cells; type: cell-based
Description: Intracellular inositol phosphate production was determined as described previously (Qian et al, 1993). IMGE-5 cells (10^5 cells/ml) were plated in 24-multiwell culture plates in DMEM supplemented with 10% FBS, 200 IU/ml penicillin and 200 μg/ml streptomycin. 24 h later, cells were incubated with DMEM supplemented with antibiotics and Myo-[2-^3H]inositol (2.5 μCi/well) and shifted to 39° C. for 16 h. Cells were then washed with pre-warmed DMEM and incubated (20-30 minutes, 37° C.) with DMEM supplemented with 20 mM LiCl. Loaded cells were then washed in 1 ml of IP buffer (135 mM NaCl, 20 mM N-(2-hydroxyethyl)piperazine-N′-(2-ethanesulfonic acid), 2 mM CaCl2, 1.2 mM MgSO4, 1 mM ethylene glycol-bis(2-aminoethylether)-N,N,N′,N′-tetraacetic acid, 10 mM LiCl, and 0.5% bovine serum albumin, pH 7.45) and incubated with or without agonist in a final volume of 0.5 ml of IP buffer. After 1-h incubation at 37° C., the reaction was stopped by removing the incubation medium and adding 1 ml of a mixture of ethanol/HCl (2000:1; v/v). One ml of each aliquot was applied to a column containing 1.6 ml of a 1:2 (v/v) Dowex AG-1-X8 anion exchange resin in distilled water. The columns were washed with 4 ml of distilled water, followed by 4 ml of 40 mM HCOONH4, and inositol phosphates were eluted with 4 ml of 1 M HCOONH4. The radioactivity of each eluate was counted after addition of Complete phase combining system solution (Amersham, UK). For the positive control, IMGE-5 cells were incubated with a combination of 30 mM NaF and 10 μM AlCl3 under the same experimental conditions.
Ggly-stimulated inositol phosphate production was measured in HT29 human colorectal carcinoma cells.

[6] = target: T1, CCK-2 receptor (Homo sapiens, UniProt P32239); assay: Gamide-stimulated proliferation in CHO cells stably transfected with the CCK-2 receptor; type: cell-based; set-up: expressed in transfected cells; host or cells: CHO
T1 sequence (P32239 1-447): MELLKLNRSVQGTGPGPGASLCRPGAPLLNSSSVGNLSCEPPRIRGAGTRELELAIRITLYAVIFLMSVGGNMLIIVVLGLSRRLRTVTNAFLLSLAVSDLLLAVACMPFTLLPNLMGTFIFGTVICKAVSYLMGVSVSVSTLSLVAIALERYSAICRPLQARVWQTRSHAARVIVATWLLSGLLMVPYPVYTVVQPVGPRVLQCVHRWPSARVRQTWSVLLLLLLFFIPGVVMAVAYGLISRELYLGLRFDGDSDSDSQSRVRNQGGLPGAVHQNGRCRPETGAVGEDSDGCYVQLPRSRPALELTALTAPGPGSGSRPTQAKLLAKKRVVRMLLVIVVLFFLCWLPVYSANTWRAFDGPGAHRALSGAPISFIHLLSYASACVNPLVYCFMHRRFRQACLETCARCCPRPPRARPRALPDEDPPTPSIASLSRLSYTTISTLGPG

- Kd ([1]; single experiment, two independent sites with identical affinities, read-out: Kd for bismuth ions, line of best fit of FIG. 11): 8600 ± 1200 nM
- Kd ([1]; two identical independent binding sites, mean ± S.E. of 5 experiments, read-out: Bismuth Kd): 8200 ± 800 nM
- Kd ([2]; pH 4.0, read-out: Kd (μM) of ferric ion binding (amidated gastrin17 and related peptides)): 0.2 ± 0.14 µM
- Kd ([2]; pH 4.0, model with two identical independent binding sites, read-out: Ferric Kd): 0.2 ± 0.1 µM
Molecule: CSCC[C@H](NC(=O)[C@H](Cc1c[nH]c2ccccc12)NC(=O)CNC(=O)[C@H](Cc1ccc(O)cc1)NC(=O)[C@H](C)NC(=O)[C@H](CCC(=O)O)NC(=O)[C@H](CCC(=O)O)NC(=O)[C@H](CCC(=O)O)NC(=O)[C@H](CCC(=O)O)NC(=O)[C@H](CCC(=O)O)NC(=O)[C@H](CC(C)C)NC(=O)[C@H](Cc1c[nH]c2ccccc12)NC(=O)[C@@H]1CCCN1C(=O)CNC(=O)[C@@H]1CCC(=O)N1)C(=O)N[C@@H](CC(=O)O)C(=O)N[C@@H](Cc1ccccc1)C(N)=O [Gamide]

- Effect on Gamide-stimulated proliferation [6]: did not significantly inhibit
Molecule: [Bi+3] [bismuth ions]
- Effect on proliferation induced by Ggly ([3]; 2, 8 or 32 moles/mole, 10 nM Ggly, HT29): significantly decreased the proliferation induced by Ggly
- Effect of bismuth ions alone on proliferation ([3]; HT29, highest concentrations tested): no effect
- Effect on stimulation of proliferation of the rectal mucosa by Ggly [4]: completely abolished
- Effect on Ggly-induced inositol phosphate production ([5]; 2, 8, and 32 moles Bi3+/mole Ggly, 10 nM Ggly): significantly reduced this Ggly-induced stimulation
- Effect of bismuth ions alone on inositol phosphate production ([5]; HT29 cells, highest concentration tested): no effect

- Kd ([2]; 10 mM sodium acetate pH 4.0, 100 mM NaCl, 0.005% Tween 20, read-out: Kd (μM), apparent dissociation constant for ferric ions): 0.18 ± 0.04 µM
Molecule: Ggly: glycine-extended gastrin17, 18 amino acid non-amidated gastrin, SEQ ID NO:4, residues 55-72 of progastrin (XGPWLEEEEEAYGWMDFG; (1)..(1) pyroglutamate; listed as Homo sapiens)
- HT29 cell proliferation compared to the control ([3]; 10 nM Ggly, MTT): 120%
- Inositol phosphate production compared to the control ([5]; HT29 cells, 10 nM Ggly): 225%
